One experiment has as its target T1, Nucleotide-binding oligomerization domain-containing protein 1 (Homo sapiens, UniProt Q9Y239).
T1 sequence (Q9Y239 whole entry): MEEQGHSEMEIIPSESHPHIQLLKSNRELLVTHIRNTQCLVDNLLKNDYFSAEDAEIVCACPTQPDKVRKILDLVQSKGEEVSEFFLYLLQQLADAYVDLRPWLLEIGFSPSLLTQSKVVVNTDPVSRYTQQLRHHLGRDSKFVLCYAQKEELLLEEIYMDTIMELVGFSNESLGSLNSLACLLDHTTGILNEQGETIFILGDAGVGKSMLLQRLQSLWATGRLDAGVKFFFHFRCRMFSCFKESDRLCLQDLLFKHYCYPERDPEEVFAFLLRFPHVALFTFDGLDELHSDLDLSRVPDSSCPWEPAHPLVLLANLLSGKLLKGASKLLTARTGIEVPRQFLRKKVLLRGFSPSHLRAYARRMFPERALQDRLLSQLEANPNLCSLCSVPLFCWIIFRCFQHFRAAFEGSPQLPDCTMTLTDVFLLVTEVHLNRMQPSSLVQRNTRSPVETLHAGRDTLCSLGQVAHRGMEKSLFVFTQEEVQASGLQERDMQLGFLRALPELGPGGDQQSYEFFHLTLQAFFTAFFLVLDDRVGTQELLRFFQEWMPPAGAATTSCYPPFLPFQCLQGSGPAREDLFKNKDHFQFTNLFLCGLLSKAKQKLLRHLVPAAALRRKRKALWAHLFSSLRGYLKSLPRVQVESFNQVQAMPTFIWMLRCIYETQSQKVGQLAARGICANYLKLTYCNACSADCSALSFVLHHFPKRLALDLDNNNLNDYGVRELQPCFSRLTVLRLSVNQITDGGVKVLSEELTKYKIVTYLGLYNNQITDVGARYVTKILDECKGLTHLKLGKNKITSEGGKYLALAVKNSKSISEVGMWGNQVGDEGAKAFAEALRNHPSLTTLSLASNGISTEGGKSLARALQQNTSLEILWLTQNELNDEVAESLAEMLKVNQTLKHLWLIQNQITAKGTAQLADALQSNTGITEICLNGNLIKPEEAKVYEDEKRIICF
Briefly: Inhibition of NOD1 (unknown origin) expressed in HEK293T cells coexpressing NF-kappaB driven luciferase reporter gene by HTS primary assay. Format: cell-based, HEK-293T.
With `O=C(Cn1c(CCNC(=O)c2ccccc2)nc2ccccc21)Nc1ccc2ccccc2c1`, the concentration for half-maximal inhibition (IC50) (in general, the concentration at which inhibition is half-maximal) was found to be 1.6 µM. The same measure, in the same setting: the figure for `O=C(Cn1c(CCNC(=O)c2ccccc2)nc2cc(Cl)ccc21)Nc1ccc2c(c1)CCC2` is 1.3 µM; for `CN(CCc1nc2ccccc2n1CC(=O)Nc1ccc2c(c1)CCC2)C(=O)c1ccccc1` it is 0.4 µM; for `O=C(Cn1c(CCNC(=O)c2ccc3ccccc3c2)nc2ccccc21)Nc1ccc2c(c1)CCC2` it is 3.4 µM. On the same count and under the same terms, the figure for `CN(CCc1nc2ccccc2n1CC(=O)Nc1ccc2c(c1)CCC2)C(=O)c1ccc2ccccc2c1` is 0.2 µM. In turn, `O=C(Cn1c(CCNC(=O)c2ccccc2)nc2ccccc21)Nc1ccc2c(c1)CCC2` had a 50% inhibitory concentration (IC50) of 3.3 µM.

`CC(C)c1cccc(NC(=O)Cn2c(CCNC(=O)c3ccccc3)nc3ccccc32)c1` had an IC50 of 0.8 µM.

Another experiment deals with Nucleotide-binding oligomerization domain-containing protein 2 (Homo sapiens, UniProt Q9HC29). The experiment can be described thus: Inhibition of NOD2 (unknown origin) expressed in HEK293T cells coexpressing NF-kappaB driven luciferase reporter gene by HTS primary assay. The experiment is classed as cell-based, HEK-293T.
Chain of Nucleotide-binding oligomerization domain-containing protein 2 (Q9HC29 whole entry, the tested form may be a part): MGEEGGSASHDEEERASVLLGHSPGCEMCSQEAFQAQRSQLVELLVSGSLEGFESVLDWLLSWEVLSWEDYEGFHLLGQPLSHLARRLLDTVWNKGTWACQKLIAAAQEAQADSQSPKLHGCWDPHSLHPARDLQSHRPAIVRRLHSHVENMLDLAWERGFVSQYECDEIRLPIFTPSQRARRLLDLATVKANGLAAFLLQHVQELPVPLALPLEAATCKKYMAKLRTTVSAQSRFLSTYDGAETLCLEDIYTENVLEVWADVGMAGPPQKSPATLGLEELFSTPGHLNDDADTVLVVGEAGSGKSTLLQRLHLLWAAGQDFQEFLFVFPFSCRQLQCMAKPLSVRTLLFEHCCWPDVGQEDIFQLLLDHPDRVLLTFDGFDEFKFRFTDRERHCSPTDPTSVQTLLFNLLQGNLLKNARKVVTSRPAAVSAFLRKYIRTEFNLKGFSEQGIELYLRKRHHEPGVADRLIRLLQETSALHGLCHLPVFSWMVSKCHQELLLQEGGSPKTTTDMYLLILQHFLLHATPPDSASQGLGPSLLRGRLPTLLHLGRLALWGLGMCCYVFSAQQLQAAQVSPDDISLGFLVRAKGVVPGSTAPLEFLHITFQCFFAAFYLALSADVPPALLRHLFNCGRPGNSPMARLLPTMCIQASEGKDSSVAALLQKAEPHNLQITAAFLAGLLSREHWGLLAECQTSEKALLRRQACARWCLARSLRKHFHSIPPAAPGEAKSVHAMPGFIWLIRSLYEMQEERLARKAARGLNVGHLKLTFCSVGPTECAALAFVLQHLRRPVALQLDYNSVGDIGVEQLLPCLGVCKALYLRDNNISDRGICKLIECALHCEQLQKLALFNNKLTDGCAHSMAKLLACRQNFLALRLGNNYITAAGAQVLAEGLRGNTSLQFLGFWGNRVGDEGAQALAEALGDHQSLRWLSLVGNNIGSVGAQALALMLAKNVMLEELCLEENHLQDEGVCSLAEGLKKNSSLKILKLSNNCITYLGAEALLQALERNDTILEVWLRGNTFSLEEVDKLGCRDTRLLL
As for `C/C=C/Cn1c(SCCCc2ccccc2)nc2c1c(=O)[nH]c(=O)n2C`, the half-inhibitory concentration (IC50) stood at 12.7 µM.

Turning to `Cc1ccc(S(=O)(=O)n2c(N)nc3ccccc32)cc1`, the IC50 was over 20 µM. Still for that read-out and setting: the figure for `CCCCCn1c(SCCc2ccccc2)nc2c1c(=O)[nH]c(=O)n2C` is over 20 µM.

For the origin of these results see ChEMBL document CHEMBL3352342, “Nucleotide-binding oligomerization domain (NOD) inhibitors: a rational approach toward inhibition of NOD signaling pathway” (J Med Chem, 2014).
